Results taken from patent US20200323802A1, “SUPPORTING IMMUNOMODULATORY AGENT” (Flexopharm Brain GMBH & Go. KG, priority 2015, published 2020).
Entries after “also recorded” stand apart in the source; their conditions may differ.

Legend:
Treg cells = Treg cells in MS patients before and after 14 days of treatment with sodium propionate plus MS drug; format: in vivo, human; details: pooled comparison group, patient-specific dose of the MS drug together with sodium propionate 2×0.5 g daily, before vs after 14 days, FIG. 6
Text: The disproportionate increase in the amount of Treg cells signifies a corresponding reduction in the autoimmune response.

TH1 and TH17 cells = assay: Th1/Th17 cells in small bowel and central nervous system in EAE mice; format: in vivo; details: mouse EAE, lauric acid enriched diet
Text: Moreover, the aliphatic chain length of the carboxylic acids also affects the […] autoimmunity as well as the regulatory response of Treg in an in vivo mouse model. […] In this context, MS and psoriasis are to be regarded as largely similar.

intestinal microbiome = assay: Influence on composition of the intestinal microbiome; format: in vivo; details: present in mice
Text: The inventive acids, in particular propionic acid and butyric acid have an influence on the intestinal physiology and the microbiome present there. In this way, they have an impact on the composition of the microbiome.

CD4+CD25+ Foxp3+ Treg = assay: Levels of CD4+CD25+ Foxp3 regulatory T cells in mouse EAE model; format: in vivo
Method: FIG. 4: is a graph showing the effect of propionic acid diet initiated at the time of disease induction (DI) compared to a control group on levels of CD4+CD25+ Foxp3 cells in mouse EAE model
FIG. 5 is a graph showing the effect of lauric acid diet (250 μM and 500 μM) initiated at the time of disease induction (DI) compared to a control group on levels of CD4+CD25+ Foxp3 cells in mouse EAE model,
(§1) Mice kept under standardized conditions were fed on a normal diet enriched with long-chain fatty acids (30.9% lauric acid) and with 200 μl of propionate daily administered orally. The propionate was given either at the time of disease induction (DI) or at the onset of the disease (OD).
(§2) For the induction of EAE the mice were anesthetized and administered two subcutaneous injections of a 50 μl emulsion applied to the left and right tail basis and comprising a total of 200 μg MOG35-55 (myelin oligodendrocyte glycoprotein) and 200 μg Freund's adjuvant (CFA) with 4 mg/ml of M. tuberculosis. Pertussis toxin ([…]) was given intraperitoneally on day 0 and day 2 after the induction. The clinical assessment took place on a daily basis using a 5-point scale (SEM).

[1] = test system: experimental autoimmune encephalomyelitis (EAE); assay: EAE mouse model, daily clinical assessment on 5-point scale (SEM); format: in vivo
Method: as §1
as §2, with “(SEM). The assessment was as follows:” for “(SEM).”
0=normal 1=Tail paralysis impairing raising 2=Gait ataxia 3=Paraparesis of hind legs
Mice showing SEM 4 or 5 were excluded.

Foxp3 = assay: Gene expression profiling of signature cytokines in EAE mice; format: in vivo, mouse; details: propionic acid-fed mice with EAE
Text: (§3) In mice treated with propionic acid, the number of regulatory T cells increases with the changes that occur in the microbiota (CD4+CD25+ Foxp3+ Treg).

TGFβ1 = assay: as above; format: in vivo, mouse; details: propionic acid-fed mice with EAE
Text: as §3

IL-10 = assay: as above; format: in vivo, mouse; details: propionic acid-fed mice with EAE
Text: as §3

[2] = test system: experimental autoimmune encephalomyelitis (EAE); assay: EAE mouse model: relative axonal density, demyelination of the white matter, CD3+ cells; format: in vivo; details: propionic acid (DI or OD), FIG. 3
Method: FIG. 3: is a graph showing the effect of propionic acid diet initiated at the time of disease induction (DI) or at the time of onset of symptoms (OD) compared to a diet control group on relative axonal density, demyelination in the white matter, and CD3+ cells in the mouse EAE model.
as §1
as §2, with “(SEM). The assessment was as follows:” for “(SEM).”
The influence of the propionic acid on the relative axonal density, the demyelination of the white matter, and the number of CD3+-cells is shown in FIG. 3.

CCCCCCCCc1ccc(CCC(N)(CO)CO)cc1 [fingolimod]
increase in number of Treg cells by a factor (Treg cells): 1.1

CCCCCCCCCCCC(=O)O [lauric acid]
TH1 and TH17 cells in the small bowel (TH1 and TH17 cells): significant reduction
Th1/Th17 in the central nervous system (TH1 and TH17 cells): accumulation
number of Provotellaceae and some families of Phylum Bacteroidetes (intestinal microbiome): reduce significantly
CD4+CD25+ Foxp3 cells versus control value (CD4+CD25+ Foxp3+ Treg; lauric acid enriched diet (250 μM and 500 μM), concentration dependent, FIG. 5): reduction

CCC(=O)O [propionic acid]
course of induced disease versus control group ([1]; MS mouse model (EAE), propionic acid given prophylactically): significant improvement
disease progression (SEM) versus control group ([1]; mouse EAE, propionic acid given orally on the day of onset of disease (OD), FIG. 2): significantly less favorable disease progression than the control group
CD4+CD25+ Foxp3 cells versus control group (CD4+CD25+ Foxp3+ Treg; propionic acid administration (DI), FIG. 4): increases; also recorded: significant increase
Foxp3 gene expression (Foxp3): increased values; also recorded: significant increase
TGFβ1 gene expression (TGFβ1): increased values; also recorded: significant increase
IL-10 gene expression (IL-10): increased values; also recorded: significant increase
relative axonal density, demyelination of the white matter and number of CD3+ cells versus control group [2]: significant improvement

C/C(O)=C(\C#N)C(=O)Nc1ccc(C(F)(F)F)cc1 [teriflunomide]
increase in number of Treg cells by a factor (Treg cells): 1.1

glatiramer acetate
increase in number of Treg cells by a factor (Treg cells): 1.1
